Laboratory results reported in ChEMBL document CHEMBL1142932 (Bioorg Med Chem, 2007).

Assays:
[1] = biological target: T1, Adenosine receptor A3 (Homo sapiens) (UniProt P0DMS8); test: Displacement of [3H]NECA from human recombinant adenosine A3 receptor expressed in HEK293T cells at 100 uM; assay type: cell-based; conditions: HEK-293T
T1 sequence (whole entry): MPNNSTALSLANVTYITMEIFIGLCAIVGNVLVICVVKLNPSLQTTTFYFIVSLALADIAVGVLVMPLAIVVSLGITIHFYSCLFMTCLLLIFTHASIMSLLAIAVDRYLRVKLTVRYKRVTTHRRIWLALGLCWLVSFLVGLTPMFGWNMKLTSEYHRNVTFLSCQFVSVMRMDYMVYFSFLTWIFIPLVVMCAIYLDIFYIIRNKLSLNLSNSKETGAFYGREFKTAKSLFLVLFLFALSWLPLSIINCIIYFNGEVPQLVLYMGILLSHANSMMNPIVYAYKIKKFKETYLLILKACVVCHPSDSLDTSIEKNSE

[2] = biological target: T2, Adenosine receptor A1 (Homo sapiens) (UniProt P30542); test: Displacement of [3H]DPCPX from human recombinant adenosine A1 receptor expressed in HEK293T cells at 100 uM; assay type: cell-based; conditions: HEK-293T
T2 sequence (whole entry): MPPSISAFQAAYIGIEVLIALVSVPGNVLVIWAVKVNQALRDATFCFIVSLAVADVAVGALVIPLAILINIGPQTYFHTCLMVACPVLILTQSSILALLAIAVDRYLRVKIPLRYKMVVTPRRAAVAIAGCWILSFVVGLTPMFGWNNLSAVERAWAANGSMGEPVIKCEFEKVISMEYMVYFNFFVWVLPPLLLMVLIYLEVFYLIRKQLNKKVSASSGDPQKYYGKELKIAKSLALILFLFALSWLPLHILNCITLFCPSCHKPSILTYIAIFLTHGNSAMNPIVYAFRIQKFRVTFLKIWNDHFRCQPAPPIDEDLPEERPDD

Adenosine receptor A2a [3] = biological target: T3, Adenosine receptor A2a (Homo sapiens, UniProt P29274); test: Displacement of [3H]CGS21680 from human recombinant adenosine A2A receptor expressed in HEK293T cells at 100 uM; assay type: cell-based; conditions: HEK-293T
T3 sequence (P29274 whole entry): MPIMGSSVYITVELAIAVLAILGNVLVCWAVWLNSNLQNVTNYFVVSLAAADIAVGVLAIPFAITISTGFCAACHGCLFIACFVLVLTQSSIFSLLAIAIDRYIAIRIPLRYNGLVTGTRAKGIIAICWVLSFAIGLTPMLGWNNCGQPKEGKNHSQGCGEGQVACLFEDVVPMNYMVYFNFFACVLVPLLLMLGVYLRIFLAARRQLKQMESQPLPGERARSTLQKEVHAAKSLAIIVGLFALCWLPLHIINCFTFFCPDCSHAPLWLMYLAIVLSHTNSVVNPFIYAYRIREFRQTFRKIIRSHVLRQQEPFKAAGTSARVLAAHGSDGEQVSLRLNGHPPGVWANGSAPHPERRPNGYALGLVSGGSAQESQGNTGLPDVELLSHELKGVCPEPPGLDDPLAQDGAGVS

Adenosine receptor A2a [4] = biological target: T3, Adenosine receptor A2a; test: biochemical
Adenosine receptor A3 = biological target: T4, Adenosine receptor A3 (Homo sapiens, UniProt P0DMS8); test: Displacement of [3H]NECA from human recombinant adenosine A3 receptor expressed in HEK293T cells; assay type: cell-based, HEK-293T
T4 sequence (P0DMS8 whole entry): T1 sequence (whole entry)

Adenosine receptor A1 = biological target: T5, Adenosine receptor A1 (Homo sapiens, UniProt P30542); test: Displacement of [3H]DPCPX from human recombinant adenosine A1 receptor expressed in HEK293T cells; assay type: cell-based, HEK-293T
T5 sequence (P30542 whole entry): T2 sequence (whole entry)

Cn1c(=O)c2c(ncn2C)n(C)c1=O
Activity [1]: 9%

CN1C(=O)C(N)C(c2ccncc2Cl)N(C)C1=O (stereo unspecified)
Activity [1]: 3% | Activity [2]: 8% | Activity (Adenosine receptor A2a [3]): 15%

Cn1c(=O)c2c(c3ccncc3n2C)n(C)c1=O
Ki (Adenosine receptor A2a [4]): 4.19 µM | Ki (Adenosine receptor A3): 3.19 µM

Cn1c(=O)c2[nH]c3cnccc3c2n(C)c1=O
Ki (Adenosine receptor A3): 0.526 µM | Ki (Adenosine receptor A1): 11.7 µM

CN1CC(Nc2cccnc2)C(=O)N(C)C1=O (stereo unspecified)
Activity [1]: 25% | Activity [2]: 22% | Activity (Adenosine receptor A2a [3]): 38%

Cn1c(=O)c2c(c3ncccc3n2C)n(C)c1=O
Ki (Adenosine receptor A3): 0.332 µM | Ki (Adenosine receptor A1): 13.5 µM

Oc1c(Br)cc2[nH]c3cnccc3c2c1Br
Ki (Adenosine receptor A2a [4]): 4.92 µM | Ki (Adenosine receptor A3): 2.05 µM | Ki (Adenosine receptor A1): 7.37 µM

Cn1c(=O)c2[nH]c3cccnc3c2n(C)c1=O
Ki (Adenosine receptor A3): 0.0139 µM | Ki (Adenosine receptor A1): 0.379 µM

CN1CC(N(C)c2cccnc2)C(=O)N(C)C1=O (stereo unspecified)
Activity [1]: 0.2% | Activity [2]: 9% | Activity (Adenosine receptor A2a [3]): 29%
